# Results as given in patent publication US8124793B2, “Derivatives of ethylene methanedisulfonate as cancer chemotherapeutic agents” (priority 2007, dated 2012).
# Key:
# Assay type in all cases: cell-based
# SF-539 = experiment: NCI screen, growth of human tumor cells: CNS Cancer SF-539; settings: SF-539 (CNS Cancer), 10^−4 molar
# Protocol: (§1) In the NCI screening process, each compound was tested and described by a minimum of 60 data points. The test data include, but are not limited to the type of cancer, the molar concentration used in the screen, and the percent growth of the cancer. In some cases, NMR and elemental analysis were used for structural assignment.
# SR = experiment: NCI screen, growth of human tumor cells: Leukemia SR; settings: for % Growth: SR
# Protocol: as §1
# human cancer cells = experiment: NCI screen summary over the cancers tested (negative growth of human cancer cells); settings: 10^−4 M conc.; cancers with negative growth / cancers tested
# Protocol: as §1
# The derivatives in the tables are grouped using the same category as in the tables 1-6.
# HCC-2998 = experiment: NCI screen, growth of human tumor cells: HCC-2998 (listed under Non-Small Cell Lung)
# Protocol: as §1
# SF-268 = experiment: NCI screen, growth of human tumor cells: CNS Cancer SF-268; settings: SF-268 (CNS Cancer), 10^−4 molar
# Protocol: as §1
# 786-0 = experiment: NCI screen, growth of human tumor cells: Renal Cancer 786-0; settings: 786-0 (Renal Cancer), 10^−4 molar
# Protocol: as §1
# UO-31 = experiment: NCI screen, growth of human tumor cells: Renal Cancer UO-31; settings: UO-31 (Renal Cancer), 10^−4 molar
# Protocol: as §1
# HS 578T = experiment: NCI screen, growth of human tumor cells: Breast Cancer HS 578T; settings: HS 578T (Breast Cancer), 10^−4 molar
# Protocol: as §1
# MOLT-4 = experiment: NCI screen, growth of human tumor cells: Leukemia MOLT-4
# Protocol: as §1
# HOP-62 = experiment: NCI screen, growth of human tumor cells: Non-Small Cell Lung HOP-62; settings: HOP-62, 10^−4 molar
# Protocol: as §1
# K562 = experiment: NCI screen, growth of human tumor cells: Leukemia K562; settings: K562 (Leukemia), 10^−4 molar
# Protocol: as §1
# COLO205 = experiment: NCI screen, growth of human tumor cells: Colon Cancer COLO205; settings: COLO205 (Colon Cancer), 10^−4 molar
# Protocol: as §1
# HL-60 (TB) = experiment: NCI screen, growth of human tumor cells: Leukemia HL-60 (TB); settings: HL-60 (TB) (Leukemia), 10^−4 molar
# Protocol: as §1
# MDA-MB-435 = experiment: NCI screen, growth of human tumor cells: Breast Cancer MDA-MB-435; settings: MDA-MB-435 (Breast Cancer), 10^−4 molar
# Protocol: as §1
# CCRF-CEM = experiment: NCI screen, growth of human tumor cells: Leukemia CCRF-CEM; settings: CCRF-CEM (Leukemia), 10^−4 molar
# Protocol: as §1
# NCI-H522 = experiment: NCI screen, growth of human tumor cells: Non-Small Cell Lung NCI-H522; settings: NCI-H522 (Non-Small Cell Lung), 10^−4 molar
# Protocol: as §1
# M14 = experiment: NCI screen, growth of human tumor cells: Melanoma M14; settings: M14 (Melanoma), 10^−4 molar
# Protocol: as §1
# DU-145 = experiment: NCI screen, growth of human tumor cells: Prostate Cancer DU-145; settings: DU-145 (Prostate Cancer), 10^−4 molar
# Protocol: as §1
# KD488 = experiment: NCI screen, growth of human tumor cells: Lymphoma KD488
# MALME-3M = experiment: NCI screen, growth of human tumor cells: Melanoma MALME-3M; settings: MALME-3M, 10^−4 molar
# Protocol: as §1
structure (smiles),measurement,setting,value
CC1(C)OCC(COC(=O)C(=O)OC(C(=O)OCC2COC(C)(C)O2)=C2S(=O)(=O)OCCOS2(=O)=O)O1 (stereo not shown) [NSC 737275],percent of growth of human tumor cells,SF-539,15%
same,percent of growth of human tumor cells,"SR; SR (Leukemia), 10^−4 molar",7%
same,Percentage of cancers showing negative growth cancers tested,human cancer cells,10^−4 M conc. = 1/5 = 20%
same,percent of growth of human tumor cells,"HCC-2998; HCC-2998 (under Non-Small Cell Lung), 10^−4 molar",−12%
same,percent of growth of human tumor cells,SF-268,24%
same,percent of growth of human tumor cells,786-0,17%
CC1=C(CC2(C(=O)C(=O)OCC3COC(C)(C)O3)S(=O)(=O)OCCOS2(=O)=O)C(=O)c2ccccc2C1=O (stereo not shown) [NSC 737277],percent of growth of human tumor cells,UO-31,22%
same,percent of growth of human tumor cells,HS 578T,24%
same,percent of growth of human tumor cells,"MOLT-4; MOLT-4 (Leukemia), 10^−4 molar",−12%
same,% Growth,SR; 10^−4 molar,−25%
same,% Growth,SR; 10^−5 molar,50%
same,Percentage of cancers showing negative growth cancers tested,human cancer cells,10^−4 M conc. = 6/9 = 67%
same,% Growth,HOP-62,−84%
same,percent of growth of human tumor cells,K562,5%
same,percent of growth of human tumor cells,COLO205,−8%
same,percent of growth of human tumor cells,HL-60 (TB),−33%
same,percent of growth of human tumor cells,MDA-MB-435,−11%
CC1(C)OCC(COC(=O)C(=O)C2(C3=C(Cl)C(=O)c4ccccc4C3=O)S(=O)(=O)OCCOS2(=O)=O)O1 (stereo not shown) [NSC 737278],percent of growth of human tumor cells,UO-31,4%
same,% Growth,"MOLT-4; MOLT-4, 10^−4 molar",−41%
same,% Growth,"MOLT-4; MOLT-4, 10^−5 molar",53%
same,% Growth,SR; 10^−4 molar,−37%
same,% Growth,SR; 10^−5 molar,20%
same,% Growth,SR; 10^−6 molar,33%
same,% Growth,SR; 10^−7 molar,56%
same,percent of growth of human tumor cells,CCRF-CEM,22%
same,Percentage of cancers showing negative growth cancers tested,human cancer cells,10^−4 M conc. = 8/12 = 67%
same,percent of growth of human tumor cells,NCI-H522,−30%
same,percent of growth of human tumor cells,K562,12%
same,percent of growth of human tumor cells,COLO205,−9%
same,percent of growth of human tumor cells,HL-60 (TB),−25%
same,% Growth,"HCC-2998; HCC-2998, 10^−4 molar",−15%
same,% Growth,"HCC-2998; HCC-2998, 10^−5 molar",41%
same,% Growth,"HCC-2998; HCC-2998, 10^−6 molar",45%
same,% Growth,"HCC-2998; HCC-2998, 10^−7 molar",64%
same,percent of growth of human tumor cells,MDA-MB-435,−45%
same,percent of growth of human tumor cells,M14,−4%
same,percent of growth of human tumor cells,DU-145,6%
O=C(c1cccc2ccccc12)C1(Br)S(=O)(=O)OCCOS1(=O)=O [compound 679048],% Growth,"KD488; KD488, 10^−4 molar",54%
same,% Growth,"KD488; KD488, 10^−5 molar",51%
same,% Growth,"KD488; KD488, 10^−6 molar",34%
same,% Growth,"KD488; KD488, 10^−7 molar",100%
same,% Growth,"KD488; KD488, 10^−8 molar",52%
COC(=O)c1cc(/C=C/C(=O)Cc2ccccc2)cn1S(=O)(=O)c1ccccc1 [compound 679534],% Growth,MALME-3M,−88%
